The test system of series [1] is experimental autoimmune encephalomyelitis. The settings on record: i.p. 5 μg/kg every 2 days; cited from earlier work.
A further series is described as follows: Solubility. In kind it is physicochemical. The procedure: In water, the solubility of OVA is about one gram per ml of water. Methylated BSA (mBSA) has been used for immunization at a concentration of 50 mg/ml of 0.9% NaCl (Gent et al., 2014).
In water DexP (MW 516.4) is soluble at a concentration of 50 mg/ml (product information of Santa Cruz Biotechnology), in PBS at a concentration of at least 25 mg/ml (Anderson et al., 2010), and in 10 mM HEPES and 135 mM NaCl, pH 6.7, at a concentration of at least 50 mg/ml (Koning et al., 2006).

For series [2] the following is noted: humans; cited from earlier work.
The conditions of series [3]: cited from earlier work.
Series [4] concerns Langerhans cells (LCs) and dermal dendritic cells (DDCs). The settings on record: LCs and DDCs primed in vitro; cited from earlier work.
Series [5] is described as follows: Release of calcitriol from PLGA-PEG-PLGA hydrogels. In kind it is physicochemical. On the procedure:
The biodegradable PLGA-PEG-PLGA triblock polymer described in this example has a PLG/PEG weight ratio of 2.3 (70/30), and a lactide/glycolide molar ratio of approx. 15/1. Synthesis of the triblock copolymer is performed as described in Example 2.1. An aliquot of 20 μl of a stock solution of calcitriol (2 mg/ml; 4.8 mM) in absolute ethanol (Cayman/Biomol GmbH) is combined with 160 μl of 25% gel solution and 20 μl of 10×PBS (final concentration of calcitriol: 0.2 mg/ml or 0.48 mM; final concentration of ethanol: 10%).
The mixture of 5.1.1 is incubated for 2 minutes at 37° C. to induce gelling and overlayed with 200 μl of 1×PBS. At frequent time points the supernatant is removed by pipetting and stored at 4° C. The removed supernatant is replaced by fresh 200 μl of 1×PBS. Controls of the same concentration of calcitriol in 1×PBS without gel are incubated and sampled in parallel.
After 48 hours the samples and controls are analysed using a Vitamin D ELISA kit, according to the manual of the manufacturer (Euroimmun AG, Luebeck). The assay is applicable for the determination of 25-0H vitamin D3 and other hydroxylated vitamin D3 molecules, and sufficiently linear from 4.0 to 120 ng/ml of 25-0H vitamin D3 (cross reactivity with calcitriol: 45%).
In brief, 20 μl of diluted samples are mixed with 230 μl of sample buffer containing a biotin-labed 25-0H vitamin D derivative. 200 μl of the mixture are transferred to an ELISA well of an 8-well strip and incubated at room temperature for 2 hours. The wells are washed with 3×300 μl washing buffer. Peroxidase labelled steptavidin-conjugate (100 μl) is added and incubated for a further hour. The well is again washed 3× with 300 μl washing buffer. Tetramethyl-benzidine (100 μl) substrate solution is added and developed until sufficient coloring. The reaction is stopped by addition of 100 μl 0.5 M sulphuric acid and measured spectrometrically at 420 nm with reference 650 nm.

The conditions of series [6]: rat, in vivo; cited from earlier work.

Here are results for one compound from patent publication US20160338955A1, “ANTIGEN-SPECIFIC IMMUNOTHERAPY USING TOLERIZING LIPOSOMES” (PLS-Design GmbH, priority 2015, published 2016).

In brackets after ≈: the same amount, converted by molar mass. Where two headings read alike, the source gives them in different places.

The term solubility denotes how much of the substance goes into solution per volume.

As for `C=C1/C(=C\C=C2/CCC[C@]3(C)[C@@H]([C@H](C)CCCC(C)(C)O)CC[C@@H]23)C[C@@H](O)C[C@@H]1O` [calcitriol, 1α,25-dihydroxyvitamin D3], in series [1], the “treated mice in which appearance of paralysis was prevented” value is 70%. For the same compound, the solubility in the series “Solubility” (1:5 ethanol:PBS, pH 7.2, aqueous with cosolvent or surfactant or cyclodextrin, read-out: solubility in a 1:5 solution of ethanol:PBS, pH 7.2) is about 0.15 mg/mL (≈ 0.36 mM); in “Solubility” (ethanol, organic solvent or mixture, read-out: solubility in ethanol), about 50 mg/mL (≈ 120 mM). Further, in series [2], the “single oral dose relatively well tolerated (grade 1 to 2 adverse events)” value is recorded as “up to 165 μg”. For the same compound, the “calcitriol dose that can be administered as single bolus i.p. injection” value in series [3] (in 0.2 ml normal saline) is given as “up to 500 ng/mouse”. For the same compound, the “calcitriol dose above which mice become hypercalcemic on day 2 or 3” value in series [3] (single bolus i.p.) is on record as “higher than 750 ng/mouse”. Also, in series [4], the “calcitriol concentration required to effectively induce FoxP3(+)Tregs and FoxP3(−)IL-10(+)TR1 cells” value is 2.5 µM. Further, the hydrogel-embedded calcitriol released entry in series [5] (after 12 hours) is recorded as “approx. 45%”; in series [5] (after 24 hours) it was “approx. 65%”; in series [5] (after 48 hours) it was “approx. 85%”; in series [5] (within the first 2 hours), “approx. 15%”. Further, the “serum level of calcitriol to be kept below to avoid toxicity” value in series [6] was “below 250 ng/ml”.
